Test results from US11413278B2, “Compounds and methods for promoting stress resistance” (priority 2015, dated 2022).
Where two headings read alike, the source gives them in different places.

Assays:
WI-38 cells [1] = test: Propidium iodide (PI) cell-death imaging upon H2O2 stress; assay type: cell-based, human; settings: for Assay 7: H2O2-resistant, at 10 uM, validated by propidium iodide (PI) cell-death imaging: w/H2O2, 3 hrs/4 hrs/5 hrs, YES/NO; for cytotoxicity at 10 µM: Homo sapiens, WI-38
WI-38 cells [2] = test: CdCl2 (cadmium) resistance assay; assay type: cell-based, human; settings: for fold induction at 10 µM: Homo sapiens, 12 h, normalized ATP measurement; for Assay 4: H2O2- & Cd-resistant / Assay 2: Cadmium-resistant: YES/NO; for Assay 2: Cadmium-resistant: * indicates partial
In short: (§1)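 Resistance to CdCl2 or MMS stress (12 h exposure) was scored in WI-38 fibroblasts pretreated with compound at 0.25–20 μM final, five doses, technical triplicates. MMS plates had compound added 24 h before MMS, after a shift to serum-free DMEM+2% BSA. Significance came from a global variance t-test over two independent runs.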

WI-38 cells [3] = test: MMS resistance assay; assay type: cell-based, human; settings: for fold induction at 10 µM: Homo sapiens, 12 h, normalized ATP measurement; for Assay 3: MMS-resistant / Assay 5: Triple resistant: YES/NO; for Assay 3: MMS-resistant: * indicates partial; for Assay 5: Triple resistant: H2O2, cadmium and MMS
In short: as §1

[4] = test system: human dermal fibroblast (HDF) primary cells; test: H2O2-resistance in primary human dermal fibroblasts; assay type: cell-based; settings: for fold induction at 10 µM: Homo sapiens; for Assay 6: H2O2-resistant, at 10 uM, human dermal fibroblast (HDF) primary cells: YES/NO
C. elegans = assay type: in vivo, Caenorhabditis elegans; settings: in vivo
In short: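 Survival under oxidative stress: 500 μM H2O2 (final) was added to day-4 adults kept in liquid with compounds, FUdR present, 4 wells per molecule and 0.2% DMSO controls, with daily scoring of viability.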

WI-38 cells [5] = test: Long-term effects on cell viability (5 days, ATP; morphology, PI imaging); assay type: cell-based; settings: 10 μM;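 as to Luminescence signal for ATP measurement, day-2 Average: compounds at 10 µM with ATP read daily over 5 days of treatment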;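 as to Luminescence signal for ATP measurement, day-3 Average: compounds at 10 µM with ATP read daily over 5 days of treatment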;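 as to Luminescence signal for ATP measurement, day-4 Average: compounds at 10 µM with ATP read daily over 5 days of treatment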;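 as to Luminescence signal for ATP measurement, day-5 Average: compounds at 10 µM with ATP read daily over 5 days of treatment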
[6] = Summary score for characterization of 38 core set hits; settings: for D = Triple resistant: 2-point score, multiplex resistance (cadmium, MMS, H2O2); for S = Sum of Negative scores: human; for C = H2O2- & Cd-resistant: score, resistance to both H2O2 and cadmium
In short: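 Each score sums results of individual assays on H2O2-resistance screen hits. Nematode lifespan assays were run in 4 to 6 independent trials and scored up to 2. Key phenotypes such as multiplex resistance, FOXO3/NRF2 activation and mTOR down-regulation were weighted at 2 points, with a deduction for human-cell toxicity.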

[7] = H2O2 3 hrs, 10 uM, n = 6, negative control 5.44% ± 0.79%, read-out: Percentage of propidium iodide-positive dead cells (under H2O2 stress treatment), 3 hrs
[8] = H2O2 4 hrs, 10 uM, n = 6, negative control 16.81% ± 1.42%, read-out: Percentage of propidium iodide-positive dead cells (under H2O2 stress treatment), 4 hrs
[9] = pre-treatment at 10 uM, 3.5 hours of H2O2, DMSO control 27.4% ± 6.5%, */**/*** = reduced by one/two/three standard deviations, read-out: Percentage of propidium iodide-positive dead cells (under H2O2 stress treatment), at 10 uM
[10] = Exp. 1, WI-38 cells, read-out: Exp. 1, under Cd2Cl2 stress treatment, at 10 uM (fold change)
[11] = Exp. 2, WI-38 cells, read-out: Exp. 2, under Cd2Cl2 stress treatment, at 10 uM (fold change)
[12] = WI-38 cells, 10 μM, both stressors
[13] = score in summary of 38 core set hits
[14] = Exp. 1, WI-38 cells, read-out: Exp. 1, under MMS stress treatment, at 10 uM (fold change)
[15] = Exp. 2, WI-38 cells, read-out: Exp. 2, under MMS stress treatment, at 10 uM (fold change)
[16] = Experiment 1, HDF cells, read-out: Experiment 1, HDF cells (under H2O2 stress treatment), at 10 uM (fold change)
[17] = Experiment 2, HDF cells, read-out: Experiment 2, HDF cells (under H2O2 stress treatment), at 10 uM (fold change)

NS(=O)(=O)c1ccc(NC(=O)c2ccc([N+](=O)[O-])o2)cc1 [Gr-1A]
Assay 7: H2O2-resistant, at 10 uM, validated by propidium iodide (PI) cell-death imaging (WI-38 cells [1]; 10 uM): YES
cytotoxicity at 10 µM (WI-38 cells [1]; [7]): 1.44%
cytotoxicity at 10 µM (WI-38 cells [1]; [8]): 3.18%
cytotoxicity at 10 µM (WI-38 cells [1]; H2O2 5 hrs, 10 uM, n = 6, negative control 22.50% ± 1.53%, read-out: Percentage of propidium iodide-positive dead cells (under H2O2 stress treatment), 5 hrs): 7.49%
cytotoxicity at 10 µM (WI-38 cells [1]; [9]): 22.6%
CdCl2-resistant (WI-38 cells [2]): YES
H2O2- & CdCl2-resistant (WI-38 cells [2]): YES
fold induction at 10 µM (WI-38 cells [2]; [10]): 1.46
fold induction at 10 µM (WI-38 cells [2]; [11]): 1.45
CdCl2-resistant (WI-38 cells [2]; WI-38 cells, 10 μM): YES
H2O2- & CdCl2-resistant (WI-38 cells [2]; [12]): YES
Assay 4: H2O2- & Cd-resistant (WI-38 cells [2]): YES
Assay 2: Cadmium-resistant (WI-38 cells [2]): YES
A = Cadmium resistant (WI-38 cells [2]; [13]): 1
A = Cadmium resistant (WI-38 cells [2]; summary score): 1
C = H2O2- & Cd-resistant (WI-38 cells [2]; summary score): 1
fold induction at 10 µM (WI-38 cells [3]; [14]): 0.72
fold induction at 10 µM (WI-38 cells [3]; [15]): 2.42
Assay 3: MMS-resistant (WI-38 cells [3]): YES
Assay 5: Triple resistant (WI-38 cells [3]): YES
B = MMS resistant (WI-38 cells [3]; [13]): 0
B = MMS resistant (WI-38 cells [3]; summary score): 1
D = Triple resistant (WI-38 cells [3]; summary score): 2
fold induction at 10 µM [4, 16]: 3.89
fold induction at 10 µM [4, 17]: 52.5
Assay 6: H2O2-resistant, at 10 uM, human dermal fibroblast (HDF) primary cells [4]: YES
H2O2-resistance assay, 1st experiment (C. elegans): YES;
L = H2O2-resistance in worms (C. elegans): 0
N = H2O2-resistance in woms (C. elegans): 0
Luminescence signal for ATP measurement, day-1 Average (WI-38 cells [5]; Batch 1, day-1, n = 6, day-0 luminescence = 320956 ± 24708): 477461
Luminescence signal for ATP measurement, day-2 Average (WI-38 cells [5]; Batch 1, day-2, n = 6, day-0 luminescence = 320956 ± 24708): 610735
Luminescence signal for ATP measurement, day-3 Average (WI-38 cells [5]; Batch 1, day-3, n = 6, day-0 luminescence = 320956 ± 24708): 739676
Luminescence signal for ATP measurement, day-4 Average (WI-38 cells [5]; Batch 1, day-4, n = 6, day-0 luminescence = 320956 ± 24708): 878508
Luminescence signal for ATP measurement, day-5 Average (WI-38 cells [5]; Batch 1, day-5, n = 6, day-0 luminescence = 320956 ± 24708): 943836
viability at 10 µM (WI-38 cells [5]; Homo sapiens, WI-38, 120 h, Batch 1, day-5, DMSO ctrl = 100.0%, read-out: ATP luminescence by day-5 normalized): 91.9%
O = Potential toxicity (WI-38 cells [5]; human, 5 days): 0
Q = Potential toxicity (WI-38 cells [5]; human, 5 days): 0
Reduction of ATP content after 5 days of continuous incubation (WI-38 cells [5]; human, 5 days): more than 40%
D = Triple resistant [6]: 0
S = Sum of Negative scores [6]: 1
C = H2O2- & Cd-resistant [6]: 1

O=C(/C(=C/c1ccc(Cl)cc1)c1nc2ccccc2[nH]1)c1ccccc1 [Gr-4D]
Assay 7: H2O2-resistant, at 10 uM, validated by propidium iodide (PI) cell-death imaging (WI-38 cells [1]; 10 uM): YES
cytotoxicity at 10 µM (WI-38 cells [1]; [7]): 1.58%
cytotoxicity at 10 µM (WI-38 cells [1]; [8]): 7.44%
cytotoxicity at 10 µM (WI-38 cells [1]; [9]): 19.8%
CdCl2-resistant (WI-38 cells [2]): YES
H2O2- & CdCl2-resistant (WI-38 cells [2]): YES
fold induction at 10 µM (WI-38 cells [2]; [10]): 2.1
fold induction at 10 µM (WI-38 cells [2]; [11]): 2.88
CdCl2-resistant (WI-38 cells [2]; WI-38 cells, 10 μM): YES
H2O2- & CdCl2-resistant (WI-38 cells [2]; [12]): YES
Assay 4: H2O2- & Cd-resistant (WI-38 cells [2]): YES
Assay 2: Cadmium-resistant (WI-38 cells [2]): YES
A = Cadmium resistant (WI-38 cells [2]; [13]): 1
A = Cadmium resistant (WI-38 cells [2]; summary score): 1
C = H2O2- & Cd-resistant (WI-38 cells [2]; summary score): 1
fold induction at 10 µM (WI-38 cells [3]; [14]): 1.72
fold induction at 10 µM (WI-38 cells [3]; [15]): 1.33
Assay 3: MMS-resistant (WI-38 cells [3]): YES
Assay 5: Triple resistant (WI-38 cells [3]): YES
B = MMS resistant (WI-38 cells [3]; [13]): 0
B = MMS resistant (WI-38 cells [3]; summary score): 1
D = Triple resistant (WI-38 cells [3]; summary score): 2
fold induction at 10 µM [4, 16]: 1.06
fold induction at 10 µM [4, 17]: 2
Assay 6: H2O2-resistant, at 10 uM, human dermal fibroblast (HDF) primary cells [4]: YES
H2O2-resistance assay, 1st experiment (C. elegans): YES;
L = H2O2-resistance in worms (C. elegans): 0
N = H2O2-resistance in woms (C. elegans): 0
O = Potential toxicity (WI-38 cells [5]; human, 5 days): 0
Q = Potential toxicity (WI-38 cells [5]; human, 5 days): 0
D = Triple resistant [6]: 0
S = Sum of Negative scores [6]: 0
C = H2O2- & Cd-resistant [6]: 1
